Measured values reported in US12527764B2, “Methods and compositions for treating androgen receptor deficient, androgen receptor low, and castration-resistant prostate cancers” (FRED HUTCHINSON CANCER CENTER, priority 2019, dated 2026).

Assays:
[1] = test system: 4ebp1 transcript expression; test: 4ebp1 transcript expression in castrate Pten^L/L cells under enzalutamide; format: cell-based, mouse; details: further inhibition of AR
Method: Total RNA was isolated using RNeasy Plus Mini Kit (Qiagen) and reverse-transcribed with iScript Reverse Transcription Supermix (Bio-Rad). cDNA was diluted 1:1 with water. Quantitative PCR was performed with 1 μl cDNA using SsoAdvanced SYBR Supermix (Bio-Rad) with primer sets specific for Ar, 4ebp1, Cacul1, Denr, Klf5, Rps15, Gapdh, luciferase, RPS19, and actin (Table 3). Normalized mRNA expression was calculated using the comparative Ct method.

[2] = test system: primary intact (DHT+) Pten^L/L cells; test: IncuCyte in vitro proliferation assay, primary intact Pten^L/L cells; format: cell-based, mouse; details: 48 hours, same drug concentrations as in castrate cells
Method: (§1) Human APIPC cell lines were provided by P.S.N., and grown as previously described (11). PC3-4EBP1^M, VCaP, 22Rv1, C4-2, and LNCaP cells were cultured in RPMI-1640 with 10% FBS or phenol-red free RPMI with 10% charcoal stripped FBS (Gemini). Intact/castrate […] mouse prostates were harvested at 16 weeks of age, micro-dissected, and minced using a scalpel. Tissue chunks were incubated in 5 mg/ml collagenase II (Gibco) in Dulbecco's modified Eagle's medium for 1 hour at 37° C., followed by 5 min further digestion with TrypLE (Thermo Fisher). The dissociated cells were passed through a 40 µm nylon mesh (Falcon) to obtain single cells. Twenty thousand cells were embedded in 50 μl of Matrigel (Corning) and plated on 24-well ultra-low attachment plates (Corning). Medium components include the following: Advanced Dulbecco's Modified Eagle Medium containing B-27 supplement (Gibco), 1.25 mM N-Acetyl-L-cysteine (Sigma), 50 ng/ml EGF (Peprotech), 200 nM A83-01 (Tocris Bioscience), 500 ng/ml R-spondin1 (conditioned medium and R-spondin1 expressing plasmid provided by Y.C.), 10 μM Y-27632 (Sigma), and 100 ng/ml Noggin (Peprotech). […] Established organoids were passaged as 3D organoids or cultured as 2D cells. […] Cell proliferation was monitored by analyzing the occupied area (% confluence) of cell images over time. […]

[3] = test system: primary castrate (DHT−) Pten^L/L cells; test: IncuCyte in vitro proliferation assay, primary castrate Pten^L/L cells; format: cell-based, mouse; details: 48 hours, same drug concentrations as in intact cells
Method: as §1

[4] = test system: AR− APIPC prostate cancer cells; test: IncuCyte in vitro proliferation assay, AR+ parental versus AR− APIPC prostate cancer cells; format: cell-based, human; details: AR-null APIPC cells compared with parental (AR+) cells, 48 hours
Method: as §1

[5] = test system: de novo protein synthesis; details: castrate Pten^L/L primary prostate cancer cells, 1 nM DHT add back, 48 hours
Method: FIG. 9D is a representative western blot of puromycin incorporation with or without addition of 1 nM DHT for 48 hours, which increases AR signaling, in castrate Pten^L/L primary prostate cancer cells (representative of 4 biological replicates).
Cells were lysed for 30 min on ice in lysis buffer containing 150 mM NaCl, 50 mM Tris, 4 mM KCl, 1 mM MgCl2 1 mM Na3VO4 10% glycerol, 1% Nonidet P-40, supplemented with phosphatase and protease inhibitor cocktails (Roche). Lysates were cleared by centrifugation at 12000 rpm for 15 min at 4° C. Supernatants were removed and assayed for protein concentration using the Protein Assay Dye Reagent (Bio-Rad). Equal amounts of proteins were subjected to SDS-PAGE and transferred to PVDF membranes (Bio-Rad). Membranes were blocked with 5% non-fat milk in PBS-Tween and were subsequently incubated with the following antibodies at 4° C. overnight: AR (N-terminus, Abcam), AR (C-terminus, SCBT), AR (GeneTex), p-AKT (S473, CST), p-AKT (T308, CST), eIF4E (BD Biosciences), eIF4A (CST), eIF4G (CST), 4EBP1 (CST), p-4EBP1 (Thr37/46, CST), KLF5 (Abcam), DENR (GeneTex), CACUL1 (GeneTex) FLAG (Sigma), RPS15 (Abcam), PTEN (CST), synaptophysin (CST), chromogranin A (Abcam). […] Signal detection was performed using the ChemiDoc Touch Imaging System (Bio-Rad) or standard film, and quantified using ImageJ.

AR− APIPC xenograft = AR− APIPC xenograft preclinical trial; format: in vivo; details: 15 mg/kg intraperitoneal
Method: (§2) 1×10^6 AR+ parental and AR− APIPC cells were resuspended 1:1 in Matrigel (Corning): RPMI-1640 (Gibco) and subcutaneously injected into the flanks of intact or castrate NOD-scid IL2Rgamma^null mice respectively. 1×1×1 mm^3 of LuCaP 173.2 tumor chunks were implanted into the flank of castrate mice. Tumor volume was calculated using the formula (L(W^2))/2, where L is the length of the tumor and W the width. When tumors reached 100 mm^3, animals were randomized to receive intraperitoneal injections of 15 mg/kg 4E1RCat (Selleckchem) or vehicle (5.2% PEG400 and 5.2% TWEEN80 in ddH2O), Monday-Friday.

[6] = test system: AR-null non-neuroendocrine LuCaP 173.2 PDX; test: LuCaP 173.2 PDX preclinical trial; format: in vivo; details: 15 mg/kg intraperitoneal
Method: as §2

[7] = test system: AR+ parental APIPC xenograft; test: AR+ parental APIPC xenograft preclinical trial; format: in vivo, intact NOD-scid IL2Rgamma^null mice; details: uncastrated mice, 15 mg/kg intraperitoneal, versus vehicle
Method: as §2

[8] = target: T1, eIF4E-eIF4G interaction (eIF4F complex) (Mus musculus, UniProt P63073); test: eIF4E-eIF4G proximity ligation assay in intact and castrate Pten^L/L cells; format: cell-based; details: 50 μM, 24 hours
T1 construct: Pten^L/L intact and castrate cells were treated with 50 μM 4E2RCat (MedChemExpress) and 20 μM 4EGI-1 (Selleckchem) for 24 hours; endogenous in cells; host or cells: primary intact and castrate Pten L/L mouse prostate cancer cells
T1 sequence (P63073 whole entry, one chain of several): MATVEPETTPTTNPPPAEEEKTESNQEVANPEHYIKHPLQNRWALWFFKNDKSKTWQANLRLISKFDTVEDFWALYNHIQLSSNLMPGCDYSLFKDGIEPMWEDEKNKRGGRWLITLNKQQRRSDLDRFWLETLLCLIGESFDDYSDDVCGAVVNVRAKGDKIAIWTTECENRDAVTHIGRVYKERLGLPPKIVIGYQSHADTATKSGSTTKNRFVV
Method: (§3) The in-situ proximity ligation assay (PLA) was optimized to detect eIF4E-eIF4G or eIF4E-4EBP1 interactions in intact/castrate Pten^L/L and castrate Pten^L;4ebp1^M FFPE tissue sections and adherent cells. FFPE sections were deparaffinized, rehydrated, and subjected to antigen retrieval in a decloaking chamber at 95° C. for 30 min in Tris-based antigen unmasking solution, pH 9 (Vector). After 30 min blocking, primary antibody incubation was performed at 4° C. overnight: eIF4E (SCBT), eIF4G (CST), and 4EBP1 (CST).
(§4) Adherent cells were grown on coverslips placed in 6-well plates until 60-70% confluent. […] Permeabilized cells were washed using 1× wash buffer followed by 1 hour blocking in a humidity chamber at 37° C. Next, cells were incubated with primary antibodies: eIF4G (CST) and eIF4E (BD Biosciences) for 2 hours at room temperature.
(§5) After incubation with primary antibody, both FFPE tissues and adherent cells were subjected to incubation with secondary antibodies conjugated to oligonucleotides (PLA plus/minus probes) for 1 hour at 37° C. The two hybridized oligonucleotides were joined in a closed circle using a ligase at 37° C. for 30 min. The DNA was then amplified with rolling circle amplification, and detection of the amplicons was carried out using the Brightfield detection kit (Sigma).

[9] = target: eIF4E-eIF4G interaction (eIF4F complex) (Homo sapiens, UniProt P06730); test: eIF4E-eIF4G proximity ligation assay in AR+ parental and AR− APIPC cells; format: cell-based; details: 10 μM, 24 hours
Sequence of eIF4E-eIF4G interaction (eIF4F complex) (Homo sapiens, UniProt P06730) (P06730 whole entry, one chain of several): as the sequence (P63073 whole entry, one chain of several) above, with T12P, P16T, A17T, D174E counted along it
Method: as §3, §4, §5

[10] = castrated mice, Monday-Friday, versus vehicle

CNC(=O)c1ccc(N2C(=S)N(c3ccc(C#N)c(C(F)(F)F)c3)C(=O)C2(C)C)cc1F [enzalutamide]
4ebp1 transcript expression [1]: does not impact

O=C(O)C(Cc1ccccc1[N+](=O)[O-])=NNc1nc(-c2ccc(Cl)c(Cl)c2)cs1 [4EGI-1, α-[2-[4-(3,4-Dichlorophenyl)-2-thiazolyl]-hydrazinylidene]-2-nitrobenzene-propanoic acid]
effect on cell proliferation [2]: negligible effects
effect on cell proliferation [3]: profound changes
sensitivity of proliferation to eIF4E-eIF4G disruption [4]: more sensitive

C[C@]12CCC(=O)C[C@@H]1CC[C@@H]1[C@@H]2CC[C@]2(C)[C@@H](O)CC[C@@H]12 [DHT, dihydrotestosterone]
de novo protein synthesis (puromycin incorporation) [5]: decreases

O=C(O)c1ccc(N2C(=O)/C(=C/c3ccc(-c4ccc([N+](=O)[O-])cc4)o3)C=C2c2ccccc2)cc1 [4E1RCat, 4-[(3E)-3-[[5-(4-nitrophenyl)furan-2-yl]methylidene]-2-oxo-5-phenylpyrrol-1-yl]benzoic acid]
toxicity to mice (body weight) (AR− APIPC xenograft; castrated NSG mice): without overt toxicity
survival (AR− APIPC xenograft; [10]): improvement
tumor growth (AR− APIPC xenograft; [10]): marked decrease
toxicity to mice (body weight) ([6]; castrated NSG mice): without overt toxicity
survival [6, 10]: improvement
tumor growth [6, 10]: marked decrease
tumor growth (sensitivity of the model) [7]: completely insensitive

O=C(O)c1cc(-c2ccc(/C=C3/SC(=S)N(Cc4ccccc4)C3=O)o2)ccc1Cl [4E2RCat, 5-[5-[(E)-(3-Benzyl-4-oxo-2-sulfanylidene-1,3-thiazolidin-5-ylidene)methyl]furan-2-yl]-2-chlorobenzoic acid]
effect on cell proliferation [2]: negligible effects
effect on cell proliferation [3]: profound changes
sensitivity of proliferation to eIF4E-eIF4G disruption [4]: more sensitive
eIF4F complex formation (proximity ligation assay) [8]: disrupt eIF4F complex formation
eIF4F complex formation (proximity ligation assay) [9]: disrupt eIF4F complex formation
